Measurements from PubChem BioAssay (NCI).
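Five concentrations, 48 hours, 96-well plates. TGI is the concentration that stops growth completely.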

Legend:
Test in all cases: growth of human tumour cells (NCI), 48 h
786-0 renal = system: 786-0 renal
A498 renal = system: A498 renal
A549 NSCLC = system: A549 NSCLC
ACHN renal = system: ACHN renal
BT-549 breast = system: BT-549 breast
CAKI-1 renal = system: CAKI-1 renal
DU-145 prostate = system: DU-145 prostate
EKVX NSCLC = system: EKVX NSCLC
HCC-2998 colon = system: HCC-2998 colon
HCT-116 colon = system: HCT-116 colon
HCT-15 colon = system: HCT-15 colon
HL-60(TB) leukemia = system: HL-60(TB) leukemia
HOP-62 NSCLC = system: HOP-62 NSCLC
HOP-92 NSCLC = system: HOP-92 NSCLC
HS 578T breast = system: HS 578T breast
HT29 colon = system: HT29 colon
IGROV1 ovarian = system: IGROV1 ovarian
K-562 leukemia = system: K-562 leukemia
KM12 colon = system: KM12 colon
LOX IMVI melanoma = system: LOX IMVI melanoma
M14 melanoma = system: M14 melanoma
MCF7 breast = system: MCF7 breast
MDA-MB-231 breast = system: MDA-MB-231 breast
MDA-MB-435 = system: MDA-MB-435
MDA-N = system: MDA-N
MOLT-4 leukemia = system: MOLT-4 leukemia
NCI-H226 lung = system: NCI-H226 lung
NCI-H23 lung = system: NCI-H23 lung
NCI-H460 lung = system: NCI-H460 lung
NCI-H522 lung = system: NCI-H522 lung
NCI/ADR-RES ovarian = system: NCI/ADR-RES ovarian
OVCAR-3 ovarian = system: OVCAR-3 ovarian
OVCAR-4 ovarian = system: OVCAR-4 ovarian
OVCAR-5 ovarian = system: OVCAR-5 ovarian
OVCAR-8 ovarian = system: OVCAR-8 ovarian
PC-3 prostate = system: PC-3 prostate
RPMI-8226 leukemia = system: RPMI-8226 leukemia
RXF 393 renal = system: RXF 393 renal
SF-268 CNS = system: SF-268 CNS
SF-295 CNS = system: SF-295 CNS
SF-539 CNS = system: SF-539 CNS
SK-MEL-2 melanoma = system: SK-MEL-2 melanoma
SK-MEL-28 melanoma = system: SK-MEL-28 melanoma
SK-MEL-5 melanoma = system: SK-MEL-5 melanoma
SNB-75 CNS = system: SNB-75 CNS
SR leukemia = system: SR leukemia
SW-620 colon = system: SW-620 colon
T-47D breast = system: T-47D breast
TK-10 renal = system: TK-10 renal
U251 CNS = system: U251 CNS
UACC-257 melanoma = system: UACC-257 melanoma
UO-31 renal = system: UO-31 renal
COLO 205 colon = system: COLO 205 colon
MALME-3M melanoma = system: MALME-3M melanoma
SK-OV-3 ovarian = system: SK-OV-3 ovarian
SN12C renal = system: SN12C renal
SNB-19 CNS = system: SNB-19 CNS
UACC-62 melanoma = system: UACC-62 melanoma

Measured: TGI

CC1(C)OCC([C@H]2O[C@@H](CC(=S)NCCCCCCCCCCCCNC(=S)C[C@H]3O[C@@H](C4COC(C)(C)O4)[C@H]4OC(C)(C)O[C@H]43)[C@H]3OC(C)(C)O[C@H]32)O1 (some centres undefined)
94.2 µM: NCI/ADR-RES ovarian
92.4 µM: SK-MEL-5 melanoma
80.2 µM: MOLT-4 leukemia
95 µM: UO-31 renal
68.8 µM: RPMI-8226 leukemia
not listed: COLO 205 colon | MALME-3M melanoma | SK-OV-3 ovarian | SN12C renal | SNB-19 CNS | UACC-62 melanoma
> 100 µM: all other assays above

O=C(O)c1cccc(C(=O)O)c1S(=O)Cc1ccccc1 (centres undefined)
not listed: MOLT-4 leukemia
> 100 µM: all other assays above
